Species on record: Rattus norvegicus
Assay: Open TG-GATES - Regimen: Single
Type: toxicity, organism-based, Sprague-Dawley
Design: regimen Single, gender Male, age 6 weeks
Settings: in vivo, po, route gavage; for Bas / Eos / Fbg / Hb / Lym / MCH / MCHC / MCV / Mono / Neu / RBC / Ret / WBC / APTT: tissue Blood; for KIDNEY_L / KIDNEY_R / KIDNEY_TOTAL: tissue Kidney; for LIVER: tissue Liver; for ALP / ALT / AST / CRE / Ca / Cl / DBIL / GLC / IP / K / LDH / Na / PL / RALB / TBIL / TC / TG / TP / gamma-GTP: tissue Plasma
[1] = 75 mg/kg, 3 h, dose level Middle

## O=C1CN(/N=C/c2ccc(-c3ccc([N+](=O)[O-])cc3)o2)C(O)=N1 [DANTROLENE]
25 mg/kg, 3 h, dose level Low
  Bas: 0%
  Eos: 1%
  Fbg: 205.2 mg/dL
  Hb: 13.6 g/dL
  Lym: 74.4%
  MCH: 22.5 pg
  MCHC: 34.1%
  MCV: 65.9 fL
  Mono: 8.4%
  Neu: 16.2%
  RBC: 604.8 x10_4/ul
  Ret: 10.4%
  WBC: 99.1 x10_2/uL
  KIDNEY_L: 1 g
  KIDNEY_R: 1 g
  KIDNEY_TOTAL: 1.9 g
  LIVER: 9.5 g
  ALP: 1009.8 IU/L
  ALT: 38.4 IU/L
  AST: 69.2 IU/L
  CRE: 0.6 mg/dL
  Ca: 10.5 mg/dL
  Cl: 101.8 meq/L
  DBIL: 0.03 mg/dL
  GLC: 213 mg/dL
  IP: 10.8 mg/dL
  K: 4.8 meq/L
  LDH: 97.8 IU/L
  Na: 139.2 meq/L
  PL: 141.6 mg/dL
  RALB: 3.8 g/dL
  TBIL: 0.4 mg/dL
  TC: 83.4 mg/dL
  TG: 39.4 mg/dL
  TP: 5.6 g/dL
  gamma-GTP: 2.6 IU/L
25 mg/kg, 6 h, dose level Low
  TERMINAL_BW: 191.8 g
  APTT: 16.9 s
  Bas: 0%
  Eos: 1.2%
  Fbg: 210.4 mg/dL
  Hb: 13.8 g/dL
  Lym: 77%
  MCH: 21.9 pg
  MCHC: 34.3%
  MCV: 64.1 fL
  Mono: 8%
  Neu: 14%
  RBC: 632.4 x10_4/ul
  Ret: 12.6%
  WBC: 89.5 x10_2/uL
  KIDNEY_L: 0.9 g
  KIDNEY_R: 0.9 g
  KIDNEY_TOTAL: 1.8 g
  LIVER: 8.7 g
  ALP: 698.6 IU/L
  ALT: 30.4 IU/L
  AST: 60.4 IU/L
  CRE: 0.5 mg/dL
  Ca: 10.3 mg/dL
  Cl: 103 meq/L
  DBIL: 0.07 mg/dL
  GLC: 188.2 mg/dL
  IP: 9.7 mg/dL
  K: 4.7 meq/L
  LDH: 100.8 IU/L
  Na: 139.2 meq/L
  PL: 141.6 mg/dL
  RALB: 3.7 g/dL
  TBIL: 0.4 mg/dL
  TC: 78.8 mg/dL
  TG: 44 mg/dL
  TP: 5.3 g/dL
  gamma-GTP: 2 IU/L
25 mg/kg, 9 h, dose level Low
  TERMINAL_BW: 189.9 g
  APTT: 16.4 s
  Bas: 0%
  Eos: 0.6%
  Fbg: 209.8 mg/dL
  Hb: 13.9 g/dL
  Lym: 80.6%
  MCH: 21.6 pg
  MCHC: 33.1%
  MCV: 65.4 fL
  Mono: 5%
  Neu: 14%
  RBC: 644 x10_4/ul
  Ret: 10.9%
  WBC: 83 x10_2/uL
  KIDNEY_L: 0.9 g
  KIDNEY_R: 0.9 g
  KIDNEY_TOTAL: 1.8 g
  LIVER: 8.2 g
  ALP: 723.6 IU/L
  ALT: 22.2 IU/L
  AST: 49.4 IU/L
  CRE: 0.6 mg/dL
  Ca: 10.4 mg/dL
  Cl: 104.4 meq/L
  DBIL: 0.062 mg/dL
  GLC: 199.4 mg/dL
  IP: 10.1 mg/dL
  K: 5.1 meq/L
  LDH: 75.2 IU/L
  Na: 139 meq/L
  PL: 137.2 mg/dL
  RALB: 3.7 g/dL
  TBIL: 0.4 mg/dL
  TC: 69.8 mg/dL
  TG: 42.8 mg/dL
  TP: 5.5 g/dL
  gamma-GTP: 2 IU/L
25 mg/kg, 24 h, dose level Low
  TERMINAL_BW: 208.5 g
  APTT: 16.6 s
  Bas: 0%
  Eos: 1%
  Fbg: 200.4 mg/dL
  Hb: 13.1 g/dL
  Lym: 81.2%
  MCH: 21.9 pg
  MCHC: 33.5%
  MCV: 65.4 fL
  Mono: 6.8%
  RBC: 600.4 x10_4/ul
  Ret: 11.4%
  WBC: 97.3 x10_2/uL
  KIDNEY_L: 1 g
  KIDNEY_R: 1 g
  KIDNEY_TOTAL: 2 g
  LIVER: 10.4 g
  ALP: 1049.2 IU/L
  ALT: 35.8 IU/L
  AST: 71.2 IU/L
  CRE: 0.5 mg/dL
  Ca: 11.1 mg/dL
  Cl: 105.4 meq/L
  DBIL: 0.012 mg/dL
  GLC: 198.2 mg/dL
  IP: 6.5 mg/dL
  K: 4.7 meq/L
  Na: 142 meq/L
  PL: 142.4 mg/dL
  RALB: 3.9 g/dL
  TBIL: 0.3 mg/dL
  TC: 77.8 mg/dL
  TG: 73.2 mg/dL
  TP: 5.6 g/dL
  gamma-GTP: 1.6 IU/L
[1]
  TERMINAL_BW: 194 g
  APTT: 16.9 s

Source: ChEMBL document CHEMBL3885861, “Open TG-GATES”
